Measured values: patent publication US20060154252A1, “Methods and composition for identifying therapeutic agents of atherosclerotic plaque lesions” (priority 2002, published 2006)
“Also recorded” adds a separate entry of the source.

Tested on: Differentiated-THP-1
Assay: Vesicle formation in the presence of fatty acids (Nile Red staining)
Type: cell-based
Details: 200 μM albumin-coupled fatty acid, 24 hours, differentiated macrophage permanent cell line
Experimental: Fatty acids can be prepared according to Spector A A and Hoak J C, (1969 Anal. Biochem, 32: 297-302): Breifly, 100 μmol of fatty acid (12:0, 16:0, 18:0 and 20:0) can be dissolved in 7.5 ml of hexane containing 400 mg of Celite (Sigma). The solvent is then evaporated under nitrogen by continuous magnetic stirring. The fatty acid-coated particles are then mixed with fatty acid free albumin, in serum free medium for 1 hour at room temperature under nitrogen. After centrifugation, the supernatnts containing fatty acid coupled to albumin is conserved.
Vesicle formation in the presence of fatty acids was induced as follows: briefly, THP1 differentiation was induced in a medium supplemented with 10^−7 M of phorbol 12-myristate-13-acetate (Sigma) for 24 hours at 37° C., 5% CO2. Differentiated-THP-1 was incubated with or without 200 μM of fatty acid-BSA complexes for 24 hours at 37° C., 5% CO2. After washing and paraformaldhehyde fixation, cells were stained with Nile Red (1 μg/ml) and Hoechst 33342 (10 μg/ml) solution for 10 minutes at RT. After washing, images of cells staining with Nile Red and Hoechst 33342 were automatized captured using a fluorescence microscope controlled by MetaMorph Software (Universal Imaging) and coupled with a CCD camera. After images analysis, results were expressed as the sum of Nile red intensity per cells number.

## CCCCCCCCCCCCCCCCCC(=O)O [stearic acid]
  induction of lipid vesicles / foam cell formation (FIG. 9): Formation of foam cells; also recorded: induction of lipid vesicles
